Measured values published in patent publication US7022856B2, “Carboline derivatives” (LIlly Icos LLC., priority 2001, dated 2006).

Molecular target: T1, human recombinant PDE5 (Homo sapiens, UniProt O76074)
T1 construct: host or cells: Saccharomyces cerevisiae strain BJ2-54 (ATCC 74465)
Assay: cGMP-PDE inhibition, one-step assay with human recombinant PDE5
Assay type: biochemical
Settings: 0.15 μM 8-[H3]-cGMP, 30 min
Method: The compounds of structural formula (I) were tested for an ability to inhibit PDE5. The ability of a compound to inhibit PDE5 activity is related to the IC50 value for the compound, i.e., the concentration of inhibitor required for 50% inhibition of enzyme activity. The IC50 value for compounds pounds of structural formula (I) were determined using recombinant human PDE5.
Recombinant production of human PDE1B, PDE2, PDE4A, PDE4B, PDE4C, PDE4D, PDE5, and PDE7 was carried out similarly to that described in Example 7 of U.S. Pat. No. 5,702,936, incorporated herein by reference, except that the yeast transformation vector employed, which is derived from the basic ADH2 plasmid described in Price et al., Methods in Enzymology, 185, pp. 308–318 (1990), incorporated yeast ADH2 promoter and terminator sequences and the Saccharomyces cerevisiae host was the protease-deficient strain BJ2-54 deposited on Aug. 31, 1998 with the American Type Culture Collection, Manassas, Va., under accession number ATCC 74465. Transformed host cells were grown in 2×SC-leu medium, pH 6.2, with trace metals, and vitamins. After 24 hours, YEP medium-containing glycerol was added to a final concentration of 2×YET/3% glycerol. Approxiately 24 hr later, cells were harvested, washed, and stored at −70° C. […]
Cell pellets (29 g) were thawed on ice with an equal volume of Lysis Buffer (25 mM Tris HCl, pH 8, 5 mM MgCl2, 0.25 mM DTT, 1 mM benzamidine, and 10 μM ZnSO4). Cells were lysed in a Microfluidizer® (Microfluidics Corp.) using nitrogen at 20,000 psi. The lysate was centrifuged and filtered through 0.45 μm disposable filters. The filtrate was applied to a 150 mL column of Q SEPHAROSE® Fast-Flow (Pharmacia). The column was washed with 1.5 volumes of Buffer A (20 mM Bis-Tris Propane, pH 6.8, 1 mM MgCl2, 0.25 mM DTT, 10 μM ZnSO4) and eluted with a step gradient of 125 mM NaCl in Buffer A followed by a linear gradient of 125–1000 mM NaCl in Buffer A. Active fractions from the linear gradient were applied to a 180 mL hydroxyapatite column in Buffer B (20 mM Bis-Tris Propane (pH 6.8), 1 mM MgCl2, 0.25 mM DTT, 10 μM ZnSO4, and 250 mM KCl). After loading, the column was washed with 2 volumes of Buffer B and eluted with a linear gradient of 0–125 mM potassium phosphate in Buffer B. Active fractions were pooled, precipitated with 60% ammonium sulfate, and resuspended in Buffer C (20 mM Bis-Tris Propane, pH 6.8, 125 mM NaCl, 0.5 mM DTT, and 10 μM ZnSO4). The pool was applied to a 140 mL column of SEPHACRYL® S-300 HR and eluted with Buffer C. Active fractions were diluted to 50% glycerol and stored at −20° C.
cGMP-PDE activity of compounds of the present invention was measured using a one-step assay adapted from Wells et al., Biochim. Biophys. Acta, 384, 430 (1975). The reaction medium contained 50 mM Tris-HCl, pH 7.5, 5 mM magnesium acetate. 250 μg/ml 5′-Nucleotidase, 1 mM EGTA, and 0.15 μM 8-[H^3]-cGMP. Unless otherwise indicated, the enzyme used was a human recombinant PDE5 (ICOS Corp., Bothell, Wash.).
Compounds of the invention were dissolved in DMSO finally present at 2% in the assay.

| Structure (SMILES) | IC50 [nM] |
| --- | --- |
| O=C(Cc1ccccc1)Nc1ccc(C(=O)N2CCc3c([nH]c4ccccc34)C2c2ccc3c(c2)OCO3)cc1 (stereo not drawn) [Example 10, N-{4-[1-(1-Benzo[1,3]dioxol-5-yl-1,3,4,9-tetrahydro-β-carbolin-2-yl)methanoyl]phenyl}-2-phenylacetamide] | 760 |
| O=C(/C=C/c1cccc(CCC(=O)N2CCc3c([nH]c4ccccc34)C2c2ccc3c(c2)OCO3)c1)N1CCc2c([nH]c3ccccc23)C1c1ccc2c(c1)OCO2 (centres unmarked) [Example 13a] | 480 |
| O=C(/C=C/c1ccc(CCC(=O)N2CCc3c([nH]c4ccccc34)C2c2ccc3c(c2)OCO3)cc1)N1CCc2c([nH]c3ccccc23)C1c1ccc2c(c1)OCO2 (centres unmarked) [Example 13b] | 20 |
| COc1ccc(C2c3[nH]c4ccccc4c3CCN2C(=O)c2cc3ccccc3s2)cc1Cl (centres unmarked) [Example 20] | 420 |
| O=C(c1cc2cc([N+](=O)[O-])ccc2s1)N1CCc2c([nH]c3ccccc23)C1c1ccc2c(c1)OCO2 (centres unmarked) [Example 21] | 130 |
| CC(=O)Nc1ccc2sc(C(=O)N3CCc4c([nH]c5ccccc45)C3c3ccc4c(c3)OCO4)cc2c1 (centres unmarked) [Example 24] | 30 |
| O=C(CCl)Nc1ccc2sc(C(=O)N3CCc4c([nH]c5ccccc45)C3c3ccc4c(c3)OCO4)cc2c1 (centres unmarked) [Example 25] | 40 |
| O=C(CN1CCOCC1)Nc1ccc2sc(C(=O)N3CCc4c([nH]c5ccccc45)C3c3ccc4c(c3)OCO4)cc2c1 (centres unmarked) [Example 27] | 40 |
| CN1CCN(CC(=O)Nc2ccc3sc(C(=O)N4CCc5c([nH]c6ccccc56)C4c4ccc5c(c4)OCO5)cc3c2)CC1 (centres unmarked) [Example 28] | 120 |
| O=C(CN1CCCCC1)Nc1ccc2sc(C(=O)N3CCc4c([nH]c5ccccc45)C3c3ccc4c(c3)OCO4)cc2c1 (centres unmarked) [Example 29] | 300 |
| COC(=O)CC(=O)Nc1ccc2sc(C(=O)N3CCc4c([nH]c5ccccc45)C3c3ccc4c(c3)OCO4)cc2c1 (centres unmarked) [Example 30] | 60 |
| O=C(Cn1ccnc1)Nc1ccc2sc(C(=O)N3CCc4c([nH]c5ccccc45)C3c3ccc4c(c3)OCO4)cc2c1 (centres unmarked) [Example 31] | 40 |
| O=C(c1ccc(CN2CCOCC2)s1)N1CCc2c([nH]c3ccccc23)C1c1ccc2c(c1)OCO2 (centres unmarked) [Example 39] | 400 |
| CN(C)CC(=O)Nc1ccc(C(=O)N2CCc3c([nH]c4ccccc34)C2c2ccc3c(c2)OCO3)o1 (centres unmarked) [Example 41] | 240 |
| CN(C)Cc1ccc2sc(C(=O)N3CCc4c([nH]c5ccccc45)C3c3ccc4c(c3)OCO4)cc2c1 (centres unmarked) [Example 43] | 290 |
| COc1cc2nc(N3CCc4c([nH]c5ccccc45)C3c3ccc4c(c3)OCO4)[nH]c(=O)c2cc1OC (stereo not drawn) [Example 46, 2-(1-Benzo[1,3]dioxol-5-yl-1,3,4,9-tetrahydro-β-carbolin-2-yl) -6,7-dimethoxy-3H-quinazolin-4-one] | 5 |
| COc1cc2nc(N3CCc4c([nH]c5ccccc45)C3c3ccc4c(c3)OCO4)nc(Cl)c2cc1OC (stereo not drawn) [Example 47a, 1-Benzo[1,3]dioxol-5-yl-2-(4-chloro-6,7-dimethoxyquinazolin-2-yl)-2,3,4,9-tetrahydro-1H-β-carboline] | 27 |
| COc1cc2cnc(N3CCc4c([nH]c5ccccc45)C3c3ccc4c(c3)OCO4)nc2cc1OC (stereo not drawn) [Example 47b, 1-Benzo[1,3]dioxol-5-yl-2-(6,7-dimethoxyquinazolin-2-yl)-2,3,4,9-tetrahydro-1H-β-carboline] | 5 |
| O=C(O)CC(=O)Nc1ccc2sc(N3CCc4c([nH]c5ccccc45)C3c3ccc4c(c3)OCO4)cc2c1 (centres unmarked) [Example 48] | 20 |
| COc1ccc(-c2ccnc(N3CCc4c([nH]c5ccccc45)C3c3ccc4c(c3)OCO4)n2)cc1 (centres unmarked) [Example 49] | 10 |
| c1cnc(N2CCc3c([nH]c4ccccc34)C2c2ccc3c(c2)OCO3)nc1 (centres unmarked) [Example 50] | 780 |
| c1ccc(-c2ccnc(N3CCc4c([nH]c5ccccc45)C3c3ccc4c(c3)OCO4)n2)cc1 (centres unmarked) [Example 51] | 30 |
| c1ccc(-c2ccnc(N3CCc4c([nH]c5ccccc45)C3c3ccccc3)n2)cc1 (centres unmarked) [Example 52] | 290 |

The remaining lines, values ahead:

| IC50 [nM] | Structure (SMILES) |
| --- | --- |
| 200 | CNc1ccc(C(=O)N2CCc3c([nH]c4ccccc34)C2c2ccc3c(c2)OCO3)cc1 (stereo not drawn) [Example 5, 1-(1-Benzo[1,3]dioxol-5-yl-1,3,4,9-tetrahydro-β-carbolin-2-yl)-1-(4-methylaminophenyl)methanone] |
| 670 | CN(C)c1ccc(C(=O)N2CCc3c([nH]c4ccccc34)C2c2ccc3c(c2)OCO3)cc1 (stereo not drawn) [Example 6, 1-(1-Benzo[1,3]dioxol-5-yl-1,3,4,9-tetrahydro-β-carbolin-2-yl)-1-(4-dimethylaminophenyl)methanone] |
| 550 | NC(=O)c1ccc(C(=O)N2CCc3c([nH]c4ccccc34)C2c2ccc3c(c2)OCO3)cc1 (stereo not drawn) [Example 7, 4-[1-(1-Benzo[1,3]dioxol-5-yl-1,3,4,9-tetrahydro-β-carbolin-2-yl)methanoyl]benzamide] |
| 190 | O=C(C#Cc1ccccc1)N1CCc2c([nH]c3ccccc23)C1c1ccc2c(c1)OCO2 (stereo not drawn) [Example 8, 1-(1-Benzo[1,3]dioxol-5-yl-1,3,4,9-tetrahydro-β-carbolin-2-yl)-3-phenylpropynone] |
| 440 | Nc1ccccc1CCC(=O)N1CCc2c([nH]c3ccccc23)C1c1ccc2c(c1)OCO2 (stereo not drawn) [Example 9, 3-(2-Aminophenyl)-1-(1-benzo[1,3]dioxol-5-yl-1,3,4,9-tetrahydro-β-carbolin-2-yl)propan-1-one] |
| 440 | O=C(CCc1ccccc1)N1CCc2c([nH]c3ccccc23)C1c1ccc2c(c1)OCO2 (stereo not drawn) [Example 11, 1-(1-Benzo[1,3]dioxol-5-yl-1,3,4,9-tetrahydro-β-carbolin-2-yl)-3-phenylpropan-1-one] |
| 110 | O=C(c1ccc(-c2cccnc2)s1)N1CCc2c([nH]c3ccccc23)C1c1ccc2c(c1)OCO2 (centres unmarked) [Example 18] |
| 250 | O=C(c1ccc(-c2ccccc2)s1)N1CCc2c([nH]c3ccccc23)C1c1ccc2c(c1)OCO2 (centres unmarked) [Example 19] |
| 80 | Nc1ccc2sc(C(=O)N3CCc4c([nH]c5ccccc45)C3c3ccc4c(c3)OCO4)cc2c1 (centres unmarked) [Example 22] |
| 360 | O=C(Cc1csc2ccccc12)N1CCc2c([nH]c3ccccc23)C1c1ccc2c(c1)OCO2 (stereo not drawn) [Example 23, 2-Benzo[b]thiophen-3-yl-1-(1-benzo[1,3]dioxol-5-yl-1,3,4,9-tetrahydro-β-carbolin-2-yl)ethanone] |
| 900 | O=C(c1ccsc1)N1CCc2c([nH]c3ccccc23)C1c1ccc2c(c1)OCO2 (centres unmarked) [Example 26] |
| 480 | O=C(c1cc2cccc(Br)c2s1)N1CCc2c([nH]c3ccccc23)C1c1ccc2c(c1)OCO2 (centres unmarked) [Example 32] |
| 200 | O=C(c1cc2c([N+](=O)[O-])cccc2s1)N1CCc2c([nH]c3ccccc23)C1c1ccc2c(c1)OCO2 (centres unmarked) [Example 33] |
| 460 | O=C(c1ccc([N+](=O)[O-])s1)N1CCc2c([nH]c3ccccc23)C1c1ccc2c(c1)OCO2 (centres unmarked) [Example 34] |
| 410 | O=C(c1cc2c(Br)cccc2s1)N1CCc2c([nH]c3ccccc23)C1c1ccc2c(c1)OCO2 (centres unmarked) [Example 35] |
| 110 | CC(=O)c1ccc(C(=O)N2CCc3c([nH]c4ccccc34)C2c2ccc3c(c2)OCO3)s1 (centres unmarked) [Example 36] |
| 40 | COc1ccc2cc(C(=O)N3CCc4c([nH]c5ccccc45)C3c3ccc4c(c3)OCO4)sc2c1 (centres unmarked) [Example 37] |
| 30 | COc1ccc2sc(C(=O)N3CCc4c([nH]c5ccccc45)C3c3ccc4c(c3)OCO4)cc2c1 (centres unmarked) [Example 38] |
| 320 | COCc1ccc(C(=O)N2CCc3c([nH]c4ccccc34)C2c2ccc3c(c2)OCO3)s1 (centres unmarked) [Example 40] |
| 850 | CN(C)Cc1ccc(C(=O)N2CCc3c([nH]c4ccccc34)C2c2ccc3c(c2)OCO3)s1 (centres unmarked) [Example 42] |
| 490 | Nc1ccc(C(=O)N2CCc3c([nH]c4ccccc34)C2c2ccc3c(c2)OCO3)s1 (centres unmarked) [Example 44] |
